Assays:
[1] = tested on: pancreatic EBs induced by Pdx1 and Ngn3 (Tet-pdx1/ngn3 ES cells); test: C-peptide secretion assay (RIA) of EBs stimulated with secretagogues; format: cell-based, mouse; conditions: floating EBs with Dox, SFD without N2 and RA, stimulated 1 hour in HKRB buffer; for stimulation of C-peptide secretion: KCl 30 mM, Forskolin 10 μM, IBMX 0.5 mM; for response of C-peptide secretion to stimulation: glucose 20 mM, tolbutamide 100 μM
Procedure: Tet-pdx1/ngn3 ES cells were cultured in SFD conditions. Pdx1 and Ngn3 expression was induced with (Dox+) or without (Dox−) Dox after day 4, and cells were harvested at the indicated time points. (A) CXCR4/c-kit^−/− or CXCR4/c-kit^+/+ cells were sorted in day 4 EBs by using a FACS sorter. Sorted cells were reaggregated and replated at day 6 on gelatin coated plates. EBs were harvested at day 9. Ins1 mRNA levels were quantified by real time PCR and normalized to the 18S mRNA levels. (B) N2 media was added to or omitted from the SFD media for days 0-14. B27, with or without retinoic acid (RA), was combined in SFD for days 0-4 and for day 4-14 (also +/−N2). Ins1 mRNA levels were quantified by real time PCR and normalized to the 18S mRNA levels. (C) Tet-pdx1/ngn3 ES cells were cultured in SFD condition without N2 and RA for 18 days. Cytoplasmic insulin was stained and analyzed by FACS. (D) Floating EBs were cultured in SFD without N2 and RA for 18 days, with or without Dox. EBs were incubated in SFD without N2 and RA for 24 hours and supernatants were harvested. C-peptide, glucagon and somatostatin were measured by RIA or EIA. (E) Floating EBs were cultured in SFD without N2 and RA for 19 days and then were unstimulated or stimulated with KCl (3 or 30 mM), glucose (20 mM), tolbutaminde (100 μM), Forskolin (10 μM) or IBMX (0.5 mM) in HKRB buffer for 1 hour. Supernatants were harvested and C-peptide was measured by RIA.
After culturing EBs for 17-18 days in SFD conditions without N2 and RA with or without Dox (1 μg/ml) as described above, the medium was changed to fresh SFD media containing 2 mM glutamine. The EBs were then incubated for 24 hours as indicated, and the conditioned medium was collected for assay. Concentrations of glucagon and somatostatin in the conditioned medium were measured using enzyme immunoassays (EIAs) specific to glucagon (Yanaihara) or somatostatin (Phoenix Pharmaceuticals) according the manufacturer's instructions. C-peptide was measured by radioimmunoassay (RIA) specific to C-peptide (Linco). For C-peptide secretion assay, day 18 EBs were washed with media were incubated in HEPES-balanced Krebs-Ringer bicarbonate (HKRB) buffer (20 mM HEPES, 103 mM NaCl, 4.8 mM KCl, 0.5 mM CaCl2, 1.2 mM MgSO4, 1.2 mM KH2PO4, 25 mM NaHCO3, 2 mM glucose, pH 7.4) with or without stimulations for 1 hour. C-peptide in the supernatant was measured by a specific RIA. Total protein amounts of EBs in each sample were evaluated by BCA assay and secretion levels for C-peptide, glucagons and somatostatin were adjusted by protein amount.
To evaluate pancreatic hormone secretion, pancreatic EBs were cultured in SFD without N2 and RA for 16-18 days and then EBs were incubated in fresh SFD media for 24 hours. The secretion of pancreatic hormones such as C-peptide, glucagon and somatostatin in the supernatant was evaluated by RIA or EIA. C-peptide, somatostatin and glucagons were not detected in EBs without Dox stimulation. […] Stimulation of C-peptide secretion by treating endocrine progenitor cells with different agents for one hour was also evaluated (FIG. 6E). C-peptide secretion increased around five fold by the addition of 30 mM potassium chloride (KCl). Forskolin and IBMX, which increase intracellular cAMP, also stimulated C-peptide secretion around 2 fold and 3 fold, respectively. No response to glucose or the inhibitors of KATP channel, glibenclamide and tolbutamide, was detected.

[2] = tested on: Ins1 mRNA in Tet-pdx1/ngn3 Ainv ES cell-derived EBs; test: Ins1 mRNA by real time PCR in EBs cultured in SFD conditions; format: cell-based, mouse; conditions: BMP4 (50 ng/ml) for days 4-6 with Dox, EBs harvested at day 9
Procedure: Tet-pdx1/ngn3 ES cells were cultured in SFD conditions. Pdx1 and Ngn3 expression was induced with (Dox+) or without (Dox−) Dox after day 4 and cells were harvested at the indicated time points. (A, B) Ins1 mRNA levels were quantified by a real time PCR and normalized to the 18S mRNA levels. A. Day 4 EBs were trypsinized and reaggregated with (closed circles) or without BMP4 (open squares) for days 4-6. EBs were harvested at days 6 and 9. B. At day 6, EBs were replated on gelatin coated dishes and floating EBs were transferred to low-cluster dishes at day 7. Attached monolayer EBs (open bars) and floating EBs (closed bars) were harvested at day 9. (C, D) Floating EBs were cultured in SFD conditions with (closed circles) or without (open squares) Dox. Ins1 (C) or Ins2 (D) mRNA levels were quantified by a real time PCR and normalized to the 18S mRNA levels.
For a real time PCR, commercially available assay mixes (Applied Biosystems) for Ins1 (Mm01259683_g1), Ins2 (Mm0731595_gH) and 18S (Hs99999901_s1) were used to quantify mRNA levels, and PCR was performed using a Prism 7700 Sequence Detector (Applied Biosystems). […]
Tet-pdx1/ngn3 Ainv ES cells were cultured in SFD for 2 days and then activin was added for days 2-4 to induce endoderm differentiation. […] Without Dox treatment, Ins1 mRNA was not detected at day 6 or day 9. […]

| Molecule | stimulation of C-peptide secretion [1] | response of C-peptide secretion to stimulation [1] | other results |
| --- | --- | --- | --- |
| C=C[C@@]1(C)CC(=O)[C@]2(O)[C@@]3(C)[C@@H](O)CCC(C)(C)[C@@H]3[C@H](O)[C@H](OC(C)=O)[C@@]2(C)O1 [Forskolin] | around 2 fold | – | – |
| CC(C)Cn1c(=O)n(C)c(=O)c2[nH]cnc21 [IBMX] | ~3 fold | – | – |
| [Cl-].[K+] [KCl, potassium chloride] | around five | – | – |
| COc1ccc(Cl)cc1C(=O)NCCc1ccc(S(=O)(=O)NC(=O)NC2CCCCC2)cc1 [glibenclamide] | – | No response | – |
| CCCCNC(=O)NS(=O)(=O)c1ccc(C)cc1 [tolbutamide] | – | No response | – |
| BMP4: growth factor BMP-4 (R&D Systems) added to SFD medium days 4-6 (protein, UniProt P12644 293-408, looked up) Bone morphogenetic protein 4: SPKHHSQRARKKNKNCRRHSLYVDFSDVGWNDWIVAPPGYQAFYCHGDCPFPLADHLNSTNHAIVQTLVNSVNSSIPKACCVPTELSAISMLYLDEYDKVVLKNYQEMVVEGCGCR | – | – | Ins1 mRNA level normalized to 18S mRNA [2]: 3.1 % of βTC6 |

From patent publication US20090280096A1, “PANCREATIC ENDOCRINE PROGENITOR CELLS DERIVED FROM PLURIPOTENT STEM CELLS” (priority 2008, published 2009)
